US20120282167A1, “METHOD FOR PREDICTING THE SENSITIVITY OF A TUMOR TO AN EPIGENETIC TREATMENT” (INSTITUT CURIE, priority 2009, published 2012)

Legend:
Format in all cases: cell-based, human
[1] = system: genes located in the regions of downregulation in cell line CL1207; assay: Re-expression of genes in the regions of downregulation, RT-qPCR, CL1207 cell line; settings: for re-expression of genes in downregulated regions 2-7, 3-2, 3-5, 7-2, 14-1, 19-3A and 19-3B: 300 nM TSA 16 hours, 5 μM 5-aza-deoxycytidine 72 hours, or 5 μM 5-aza-deoxycytidine 48 hours followed by 300 nM TSA 10 hours; for re-expression of genes in regions 6-7 and 17-7: same treatments, effect if fold-change >1.5
Text: FIG. 3: […] The treatments were scored as having an effect (resulting in re-expression) if the fold-change between treated and non-treated was greater than 1.5. […] With both methods, all samples were run in duplicate. For all experiments involving […] and CL1207 both methods were used.

[2] = system: genes within the seven epigenetic regions in TCCSUP, HT1376 and JMSU1 cells; assay: Re-expression of genes of the seven RES regions after TSA, RT-qPCR (TLDA), cell lines TCCSUP, HT1376 and JMSU1
Method: (§1) FIG. 10: Characterization of the regional epigenetic phenotype in bladder cancer cell lines. (a) Comparison of mRNA expression for genes in region 2-7 before and after treatment with TSA in bladder cancer cell lines and NHU cells; results obtained for the CL1207 cells (from FIG. 3) are also shown. Transcript values were measured by RT-qPCR using TLDA (see Materials and Methods in experimental section). The ratio between treated and non-treated cells is shown. Error bars represent the variation between the means of two independent experiments of TSA treatment. (b) Same comparison for region 3-2. (c) Same comparison for region 19-3A. (d) Summary of the effects of TSA treatment on all bladder cancer and NHU cell lines studied. Only groups of genes in which at least two genes were re-expressed after treatment are considered (see FIG. 11). (e) ChIP analysis in TCCSUP and RT112 cells for regions 2-7, 3-2 and 19-3A, with an antibody against trimethyl residues on lysine 9 of histone 3.
(§2) FIG. 11: Comparison of the mRNA levels of the genes in regions 3-5, 7-2, 14-1 and 19-3B in bladder cancer and normal cells before and after treatment with TSA. mRNA levels were assessed by RT-qPCR using TLDA (see Materials and Methods in experimental section). The ratio between treated versus non-treated cells is shown. Error bars represent the variation between two independent experiments. […]

[3] = system: genes within the seven epigenetic regions in NHU, MGHU3, RT112 and T24 cells; assay: Re-expression of genes of the seven RES regions after TSA, RT-qPCR (TLDA), NHU, MGHU3, RT112 and T24
Method: as §1, §2

[4] = system: cell lines with the RES phenotype (TCCSUP, HT1376, JMSU1 and CL1207); assay: Trichostatin A sensitivity assay (living cells counted after 72 hours, treated versus non-treated); settings: on average for TCCSUP, doses 100 nM to 500 nM, read-out: IC50 (half maximal inhibitory concentration), growth inhibition
Method: (§3) FIG. 13: Cell viability after treatment with various doses of trichostatin A in bladder cancer cell lines with or without the RES phenotype and NHU cells. The percentage of surviving treated versus non-treated cells as a function of TSA concentration for various bladder cancer (MGHU3, RT112, T24, TCCSUP, HT1376, JMSU1, CL1207) and normal (NHU) cell lines is indicated. The number of cells surviving post treatment with TSA for 72 hours was counted and compared to control (no treatment) cultures. Cell lines with the RES phenotype are indicated with full symbols (TCCSUP, HT1376, JMSU1, CL1207) whereas cell lines without the RES phenotype (NHU, MGHU3, RT112, T24) are indicated with empty symbols. The error bars indicate the mean variation between two independent experiments.
(§4) All bladder cancer and NHU cell lines were seeded in 12-well plates at a density of 5×10^4 cells/well. Cultures were treated the next day, in duplicate, with various doses of trichostatin A, from 100 nM to 500 nM, with two wells left untreated. After 72 hours, the living cells in each treated well were harvested and counted and compared to the numbers of cells in the non-treated wells. The resulting ratio was used to assess sensitivity to trichostatin A.
(§5) The RES phenotype was characterized by strong histone K9 and K27 methylation and K9 hypoacetylation, but extremely rare DNA methylation. […]

[5] = system: cell lines without the RES phenotype (MGHU3, RT112 and T24) and NHU cells; assay: as above; settings: doses 100 nM to 500 nM, read-out: IC50 (half maximal inhibitory concentration), growth inhibition
Method: as §3, §4, §5

[6] = system: H3K9me3, H3K27me3 and H3K9ac at gene promoters in CL1207 cells; assay: Chromatin immunoprecipitation (ChIP) of histone modifications in CL1207 before and after TSA; settings: 300 nM TSA for 16 h
Text: FIG. 5: Analyses of epigenetic modifications in regions 2-7 and 19-3A (a) Schematic map of region 2-7 (not to scale) with CpG islands, according to the UCSC browser. The number of CpG in each island is indicated. (b) DNA methylation analyses for region 2-7: bisulfite sequencing analyses for CpG 141 and CpG 39 covering a promoter region. In each case, T1207 DNA, CL1207 DNA, NHU DNA and SssI-methylated DNA (“Met. DNA”) were studied. Each row represents an individual clone, and each box (methylated in black, unmethylated in white) represents an individual CpG site. The curved arrows indicate the transcription start sites. (c) ChIP assays were performed for promoters in region 2-7 with antibodies against trimethyl H3K9 (left panel), trimethyl H3K27 (middle panel) and acetyl H3K9 (right panel). […] (d) Schematic map of region 19-3A with CpG islands. (e) ChIP analyses for region 19-3A as in (c).
FIG. 6: Analyses of epigenetic modifications in region 3-2. (a) Schematic map of region 3-2 (not to scale) with CpG islands, according to the UCSC browser. The number of CpGs in each island is indicated. (b) DNA methylation analyses for region 3-2: bisulfite sequencing analyses for the three CpGs covering a promoter region: CpG 74, 59 and 68. In each case, DNA from T1207, CL1207 and NHU and SssI-methylated DNA (“Met. DNA”) were studied. Each row represents an individual clone and each box represents an individual CpG site. A black box indicates methylation and a white box no methylation. The curved arrows indicate the transcription start sites. (c) Methylation analysis of DLEC1 promoter by bisulfite sequencing in five tumor samples showing downregulation of region 3-2: T195, T259, T447, T910 and T1448. […]
Chromatin immunoprecipitation (ChIP) assays were carried out in duplicate in three 150 cm^2 dishes for untreated CL1207, CL1207 treated with 300 nM TSA for 16 h, TCCSUP, RT112 and NHU cells. […] The amount of immunoprecipitated target was determined by real-time PCR, in duplicate, using the ABI PRISM 7900HT Sequence Detection System. […]

[7] = most of the genes in all three regions

SMILES | gene re-expression in repressed regions on chromosome 3 (VILL to ACAA1) and 2 (HOXD8 to HOXD1) ([1]; compared with TSA, effect if ratio >1.5) | re-expression of genes in downregulated regions 2-7, 3-2, 3-5, 7-2, 14-1, 19-3A and 19-3B ([1]; effect if ratio >1.5) | genes re-expressed after 5-aza-deoxycytidine treatment alone ([1]; BSN (3-5), SKAP2, HOXA4, HOXA5 (7-2), EFS, AP1G2 (14-1), 5 μM, 72 hours) | re-expression of genes in regions 6-7 and 17-7 [1] | re-expression of the regions in TCCSUP cell line ([2]; TCCSUP, TSA treatment) | re-expression of genes within the seven epigenetic regions ([2]; second group: TCCSUP, HT1376 and JMSU1, 300 nM TSA 16 hours) | re-expression of the regions in RT112 cells ([3]; RT112, TSA treatment) | re-expression of genes within the seven epigenetic regions ([3]; first group: NHU, MGHU3, RT112 and T24, 300 nM TSA 16 hours) | IC50 [4] | IC50 [5] | H3K9 and H3K27 trimethylation at promoters of BSN, HOXA1, DHRS2 and JAK3 (regions 3-5, 7-2, 14-1, 19-3B) [6] | levels of active mark (H3K9ac) at promoters, regions 2-7, 3-2 and 19-3A [6, 7] | levels of inactive marks (H3K9me3, H3K27me3) at promoters, regions 2-7, 3-2 and 19-3A [6, 7]
Nc1ccccc1NC(=O)c1ccc(CNC(=O)OCc2cccnc2)cc1 [MS275] | enabled gene re-expression in the studied regions as well as did TSA | – | – | – | – | – | – | – | – | – | – | – | –
Nc1ncn([C@H]2C[C@H](O)[C@@H](CO)O2)c(=O)n1 [5-aza-deoxycytidine] | – | reexpression of most of the genes in seven regions | re-expressed | either to no re-expression or re-expression of only one isolated gene | – | – | – | – | – | – | – | – | –
CC(/C=C/C(=O)NO)=C\[C@@H](C)C(=O)c1ccc(N(C)C)cc1 [TSA, trichostatin A] | – | reexpression of most of the genes in seven regions | – | either to no re-expression or re-expression of only one isolated gene | all regions were re-expressed | gene re-expression was observed for most of the silenced regions after treatment | no region was re-expressed, except two genes in region 7-2 | most of the genes were not re-expressed, except for a few isolated genes in some cell lines | 100 nM | 500 nM | these marks were decreased | increased the levels of the active mark | decreased the levels of the inactive marks
